The target in data set [1] is MMP9 (Homo sapiens, UniProt P14780). Description: Off-target metalloprotease inhibition, MMP9. The format is biochemical. The note with it: read-out: Residual activity MMP9.
A short description of data set [2]: Cell viability assay. The format is cell-based. To be noted: human, Hep-G2 cells.
Data set [3] can be described thus: Cell viability assay. The format is cell-based. The note with it: human, SH-SY5Y cells.
In data set [4] the target is ADAM17 (Homo sapiens, UniProt P78536). Description: Off-target metalloprotease inhibition, ADAM17. The note with it: for remaining activity at 10 µM: read-out: Residual activity ADAM17. The format is biochemical.
ADAM17, sequence (P78536 215-824): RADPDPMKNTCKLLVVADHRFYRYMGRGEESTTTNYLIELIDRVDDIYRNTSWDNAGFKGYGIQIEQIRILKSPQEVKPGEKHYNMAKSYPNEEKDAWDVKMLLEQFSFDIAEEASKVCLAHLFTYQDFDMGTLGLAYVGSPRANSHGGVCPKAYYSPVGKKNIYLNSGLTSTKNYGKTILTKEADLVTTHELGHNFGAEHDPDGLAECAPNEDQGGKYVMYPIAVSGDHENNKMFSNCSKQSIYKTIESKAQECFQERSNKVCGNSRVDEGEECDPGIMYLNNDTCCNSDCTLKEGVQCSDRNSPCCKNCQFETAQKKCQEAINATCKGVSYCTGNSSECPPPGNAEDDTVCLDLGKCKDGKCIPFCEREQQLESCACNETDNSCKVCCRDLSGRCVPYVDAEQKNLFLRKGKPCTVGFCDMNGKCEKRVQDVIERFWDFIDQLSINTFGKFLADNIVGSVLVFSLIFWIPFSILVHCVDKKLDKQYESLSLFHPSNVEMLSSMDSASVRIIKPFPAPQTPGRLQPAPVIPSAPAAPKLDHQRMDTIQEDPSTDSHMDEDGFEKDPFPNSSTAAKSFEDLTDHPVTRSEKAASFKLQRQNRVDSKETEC
The target in data set [5] is MMP13 (Homo sapiens, UniProt P45452). Description: Off-target metalloprotease inhibition, MMP13. The format is biochemical. The note with it: read-out: Residual activity MMP13.
In data set [6] the target is T1, ADAM10 (Homo sapiens, UniProt O14672).
T1 sequence (O14672 214-748): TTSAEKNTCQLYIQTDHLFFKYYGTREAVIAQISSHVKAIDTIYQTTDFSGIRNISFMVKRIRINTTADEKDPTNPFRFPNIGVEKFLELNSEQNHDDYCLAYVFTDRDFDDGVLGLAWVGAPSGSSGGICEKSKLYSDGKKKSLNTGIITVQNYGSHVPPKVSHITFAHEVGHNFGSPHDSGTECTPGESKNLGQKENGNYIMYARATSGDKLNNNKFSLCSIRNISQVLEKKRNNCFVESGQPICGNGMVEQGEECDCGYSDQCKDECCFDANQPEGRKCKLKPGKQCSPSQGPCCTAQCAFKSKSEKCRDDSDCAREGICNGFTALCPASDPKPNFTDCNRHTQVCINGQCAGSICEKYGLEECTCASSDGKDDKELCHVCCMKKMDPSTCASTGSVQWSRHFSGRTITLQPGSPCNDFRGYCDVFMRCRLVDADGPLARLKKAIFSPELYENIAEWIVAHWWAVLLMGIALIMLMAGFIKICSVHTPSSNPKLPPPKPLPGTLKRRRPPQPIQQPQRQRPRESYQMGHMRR
Description: Off-target metalloprotease inhibition, ADAM10. Type of data set: biochemical. The note with it: for remaining activity at 10 µM: read-out: Residual activity ADAM10.

In data set [7] the target is T2, MMP2 (Homo sapiens, UniProt P08253).
T2 sequence (P08253 110-660): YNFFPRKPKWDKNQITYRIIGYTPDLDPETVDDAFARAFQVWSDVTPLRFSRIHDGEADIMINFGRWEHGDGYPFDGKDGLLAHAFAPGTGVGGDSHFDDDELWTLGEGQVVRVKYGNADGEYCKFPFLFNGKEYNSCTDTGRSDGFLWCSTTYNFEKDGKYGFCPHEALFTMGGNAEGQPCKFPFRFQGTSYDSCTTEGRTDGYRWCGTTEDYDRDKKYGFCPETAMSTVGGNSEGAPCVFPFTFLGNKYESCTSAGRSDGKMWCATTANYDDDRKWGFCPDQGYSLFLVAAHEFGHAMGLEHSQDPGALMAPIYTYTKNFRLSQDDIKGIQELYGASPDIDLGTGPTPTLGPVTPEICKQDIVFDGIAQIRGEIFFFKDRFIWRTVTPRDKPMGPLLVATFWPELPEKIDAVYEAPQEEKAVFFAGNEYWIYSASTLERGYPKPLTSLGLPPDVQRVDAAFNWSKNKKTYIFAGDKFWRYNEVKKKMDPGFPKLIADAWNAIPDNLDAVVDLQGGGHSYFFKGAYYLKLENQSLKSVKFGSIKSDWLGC
Description: Off-target metalloprotease inhibition, MMP2. The format is biochemical. The note with it: for remaining activity at 10 µM: read-out: Residual activity MMP2.

In data set [8] the target is T3, human meprin α (Homo sapiens, UniProt Q16819).
T3 sequence (Q16819 66-746): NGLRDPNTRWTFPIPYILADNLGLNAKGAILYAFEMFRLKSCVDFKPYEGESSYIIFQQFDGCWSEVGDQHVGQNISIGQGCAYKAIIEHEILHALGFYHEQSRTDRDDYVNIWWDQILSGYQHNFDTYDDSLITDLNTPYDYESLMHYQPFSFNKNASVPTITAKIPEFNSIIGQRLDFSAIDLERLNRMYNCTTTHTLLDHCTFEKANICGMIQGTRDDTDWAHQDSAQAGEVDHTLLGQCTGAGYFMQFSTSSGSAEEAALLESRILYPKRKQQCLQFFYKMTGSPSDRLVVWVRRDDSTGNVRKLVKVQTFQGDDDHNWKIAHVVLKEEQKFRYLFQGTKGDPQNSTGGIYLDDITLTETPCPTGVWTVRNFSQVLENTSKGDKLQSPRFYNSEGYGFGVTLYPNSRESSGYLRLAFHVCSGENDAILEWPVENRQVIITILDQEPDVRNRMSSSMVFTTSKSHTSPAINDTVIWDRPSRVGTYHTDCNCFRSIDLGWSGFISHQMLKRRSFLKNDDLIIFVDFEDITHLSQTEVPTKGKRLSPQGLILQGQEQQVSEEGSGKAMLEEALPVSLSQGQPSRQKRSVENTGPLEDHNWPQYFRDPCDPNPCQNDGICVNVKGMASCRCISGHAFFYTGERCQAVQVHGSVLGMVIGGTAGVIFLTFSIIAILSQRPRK
Type of data set: biochemical. To be noted: for Ki: Ki(app) Meprin α, geometric mean of three independent experiments with standard deviation factor; for SF: selectivity factor (Ki(app) meprin β/Ki(app) meprin α): meprin α over meprin β.

Data set [9] addresses T4, human meprin β (Homo sapiens, UniProt Q16820).
T4 sequence (Q16820 62-701): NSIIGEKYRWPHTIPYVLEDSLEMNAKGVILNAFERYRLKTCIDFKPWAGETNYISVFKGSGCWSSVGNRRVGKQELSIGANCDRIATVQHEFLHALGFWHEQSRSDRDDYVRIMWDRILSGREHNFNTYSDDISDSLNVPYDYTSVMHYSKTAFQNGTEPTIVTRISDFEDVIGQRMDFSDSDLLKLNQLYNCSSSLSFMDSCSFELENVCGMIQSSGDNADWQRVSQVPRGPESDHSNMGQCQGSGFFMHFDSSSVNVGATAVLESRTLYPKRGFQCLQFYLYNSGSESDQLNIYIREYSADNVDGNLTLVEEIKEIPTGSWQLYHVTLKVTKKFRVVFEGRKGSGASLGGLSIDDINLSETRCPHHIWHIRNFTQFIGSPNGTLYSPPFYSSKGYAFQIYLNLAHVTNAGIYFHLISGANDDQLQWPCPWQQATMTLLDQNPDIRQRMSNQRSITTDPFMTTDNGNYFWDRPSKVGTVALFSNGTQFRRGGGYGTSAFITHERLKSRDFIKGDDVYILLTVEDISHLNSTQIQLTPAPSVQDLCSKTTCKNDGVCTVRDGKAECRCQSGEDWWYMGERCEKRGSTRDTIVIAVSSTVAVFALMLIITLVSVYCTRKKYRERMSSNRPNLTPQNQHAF
The format is biochemical. The note with it: for Ki: Ki(app) Meprin β, geometric mean of three independent experiments with standard deviation factor.

Structures are written as SMILES.

MMP9, sequence (P14780 107-707 limits assumed): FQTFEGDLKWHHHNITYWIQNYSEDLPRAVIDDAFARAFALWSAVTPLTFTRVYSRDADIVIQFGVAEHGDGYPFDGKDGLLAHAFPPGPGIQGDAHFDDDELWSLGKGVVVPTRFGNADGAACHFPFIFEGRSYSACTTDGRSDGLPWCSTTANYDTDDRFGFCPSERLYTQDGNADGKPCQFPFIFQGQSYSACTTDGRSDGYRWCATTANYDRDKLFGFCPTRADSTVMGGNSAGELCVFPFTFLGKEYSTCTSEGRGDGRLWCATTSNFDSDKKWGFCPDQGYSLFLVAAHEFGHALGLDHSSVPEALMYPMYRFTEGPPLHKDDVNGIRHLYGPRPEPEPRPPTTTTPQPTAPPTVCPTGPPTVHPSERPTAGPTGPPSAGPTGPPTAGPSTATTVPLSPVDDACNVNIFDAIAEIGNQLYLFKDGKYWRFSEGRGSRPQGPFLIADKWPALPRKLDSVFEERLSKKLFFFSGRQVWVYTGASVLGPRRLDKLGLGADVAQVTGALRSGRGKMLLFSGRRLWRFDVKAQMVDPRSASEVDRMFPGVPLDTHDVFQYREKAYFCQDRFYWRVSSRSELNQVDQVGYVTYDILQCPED

By viability is commonly meant a read-out of living cells in per cent, often relative to untreated cells. The term IC50 denotes the point on the concentration scale where inhibition reaches its midpoint. Read a low IC50 as inhibition by little substance. In the case of `O=C(Cc1c(-c2ccc3c(c2)OCO3)n[nH]c1-c1ccccc1)NO` [14f, 2-[3-(1,3-Benzodioxol-5-yl)-5-phenyl-1H-pyrazol-4-yl]ethanehydroxamic acid], the remaining activity at 10 µM in [1] turned out to be 72%; in data set [4], 51%; in data set [5] it was 71%; in data set [6] it was 59%; in [7], 41%. Further, the viability at 24 h, 30 µM stood at 96% in [2] and 90% in data set [3]. In addition, the IC50 came out at 7400 nM in data set [4], 13900 nM in data set [6] and 5300 nM in data set [7]. Also, the Ki in data set [8] is 1.1 nM. For the same molecule, the “SF: selectivity factor (Ki(app) meprin β/Ki(app) meprin α)” value (“SF: selectivity factor” below) in data set [8] was found to be 99.

As for `COc1cccc(-c2n[nH]c(-c3ccccc3)c2CC(=O)NO)c1` [14d, 2-[3-(3-Methoxyphenyl)-5-phenyl-1H-pyrazol-4-yl]ethanehydroxamic acid], the remaining activity at 10 µM was 80% in [1]; 52% in data set [4]; 85% in data set [5]; 68% in [6]; 78% in data set [7]. Further, the figures for the viability at 24 h, 30 µM in data set [2] and in [3] were 104% and 84%, respectively. Besides, it took 11600 nM to reach half-maximal inhibition in data set [4] (IC50). For the same molecule, in [8], the Ki worked out at 1.1 nM. Also, the “SF: selectivity factor” value in data set [8] is reported as 105.

`O=C(Cc1c(-c2ccc3c(c2)OCO3)n[nH]c1-c1ccc2c(c1)OCO2)NO` [16a, 2-[3,5-Bis(1,3-benzodioxol-5-yl)-1H-pyrazol-4-yl]ethanehydroxamic acid]: the remaining activity at 10 µM in data set [1] stood at 63%; in [4], 57%; in data set [6], 62%. Besides, the figures for the IC50 in [4] and in [6] were 9600 nM and 12000 nM, respectively. Further, the Ki in [8] stood at 0.6 nM.

`Cn1nc(-c2ccccc2)c(CC(=O)NO)c1-c1ccccc1` [21a, 2-(1-Methyl-3,5-diphenyl-pyrazol-4-yl)ethanehydroxamic acid]: the results for the Ki in data set [9] and in data set [8] were 437 nM and 5 nM, respectively. Moreover, the “SF: selectivity factor” value in [8] came to 87.

For the molecule `O=C(Cc1c(-c2ccccc2)nn(-c2cccc(C(=O)O)c2)c1-c1ccccc1)NO` [21c, 3-[4-[2-(Hydroxyamino)-2-oxo-ethyl]-3,5-diphenyl-pyrazol-1-yl]benzoic acid], the values for the Ki in [9] and in data set [8] were 212 nM and 4 nM, respectively. In addition, the “increased inhibition of meprin β by factor” value in data set [9] (in comparison to the N-phenyl pyrazole 21b) is on record as 3. Besides, in [8], the “SF: selectivity factor” value was determined as 53.

`O=C(Cc1c([C@@H]2CCCC[C@@H]2C(=O)O)n[nH]c1-c1cccc(C(=O)O)c1)NO` (relative stereo) [16k, 3-[4-[2-(Hydroxyamino)-2-oxo-ethyl]-3-[cis-2-carboxycyclohexyl]-1H-pyrazol-5-yl]benzoic acid]: the Ki in data set [9] turned out to be 5.2 nM. Besides, in [8], the Ki came out at 0.4 nM and the “SF: selectivity factor” value turned out to be 13.

Regarding `O=C(Cc1c(-c2ccccc2)nn(Cc2ccc3c(c2)OCO3)c1-c1ccccc1)NO` [21f, 2-[1-(1,3-Benzodioxol-5-ylmethyl)-3,5-diphenyl-pyrazol-4-yl]ethanehydroxamic acid], the remaining activity at 10 µM in data set [1] was 74%; in [4], 21%; in [5], 78%; in [6], 69%; in data set [7], 77%. In addition, the viability at 24 h, 30 µM was found to be 103% in data set [2] and 88% in data set [3]. Inhibition in data set [4] was half-maximal at 2300 nM (IC50). The same molecule registered a Ki in data set [8] of 0.6 nM. Besides, the “SF: selectivity factor” value in [8] came out at 508.

In the case of `O=C(Cc1c(-c2cccc(C(=O)O)c2)[nH]nc1[C@H]1CC[C@@H](C(=O)O)CC1)NO` [16m, 3-[3-(Cis-4-Carboxycyclohexyl)-4-[2-(hydroxyamino)-2-oxo-ethyl]-1H-pyrazol-5-yl]benzoic acid], the results for the Ki in data set [9] and in [8] were 14.5 nM and 21 nM, respectively. In addition, in data set [8], the “SF: selectivity factor” value was 0.7.

As for `O=C(Cc1c(-c2ccc(C(=O)O)cc2)n[nH]c1-c1cccc(C(=O)O)c1)NO` [16g, 3-[3-(4-Carboxyphenyl)-4-[2-(hydroxyamino)-2-oxo-ethyl]-1H-pyrazol-5-yl]benzoic acid], the Ki in data set [9] is 32.5 nM. Further, in data set [8], the Ki was found to be 20.3 nM and the “SF: selectivity factor” value is recorded as 2.

For the molecule `O=C(Cc1c(-c2ccccc2)nn(Cc2ccccc2)c1-c1ccccc1)NO` [21e, 2-(1-Benzyl-3,5-diphenyl-pyrazol-4-yl)ethanehydroxamic acid], in data set [9], the Ki stood at 291 nM. Moreover, in [8], the Ki is 1 nM and the “SF: selectivity factor” value came to 291.

In the case of `COc1ccc(-c2n[nH]c(-c3ccccc3)c2CC(=O)NO)cc1OC` [14g, 2-[3-(3,4-Dimethoxyphenyl)-5-phenyl-1H-pyrazol-4-yl]ethanehydroxamic acid], the remaining activity at 10 µM in [1] worked out at 90%; in data set [4] it was 65%; in [5], 101%; in data set [6], 87%; in data set [7], 83%. Besides, the viability at 24 h, 30 µM in [2] amounted to 99%; in data set [3], 85%. For the same molecule, the Ki in data set [8] worked out at 0.7 nM. Also, the “SF: selectivity factor” value in [8] was found to be 117.

The values above are taken from publication PMC9870012 (Journal of Enzyme Inhibition and Medicinal Chemistry, 2023).
